Measurements: patent US20220339167A1, “HORMONE D (VITAMIN D) AND ITS DERIVATIVES FOR THE TREATMENT AND PREVENTION OF CANCER” (Industrial Technologies & Biotechnologies, priority 2019, published 2022)

What was measured:
HL-60 = settings: cited from earlier work
nonmelanoma skin cancers = assay: oral hormone D3 treatment of nonmelanoma skin cancers; format: in vivo; settings: twelve nonmelanoma skin cancers; oral intake, 466 IU daily, between 6 and 8 months
cancer = settings: cited from earlier work
[1] = test system: cancer or major cardiovascular events; settings: 2000 IU daily for 5 years, initially healthy adults; cited from earlier work
colorectal cancer = settings: 400 IU vitamin D3 with 1000 mg elemental calcium as calcium carbonate; average seven years follow-up; cited from earlier work
normal colonic mucosa = settings: six months; vitamin D3 800 IU daily with calcium 2000 mg daily; cited from earlier work

Structure (SMILES) | cell differentiation (HL-60) | outcome of treated nonmelanoma skin cancers (nonmelanoma skin cancers) | authors' conclusion on cancer prevention (cancer; high dose supplementation prescribed monthly) | participants with primary outcome of cancer (cancer; oral, initial bolus 200,000 IU then 100,000 IU monthly, up to 4 years, without calcium, placebo group 6.4%) | incidence of cancer or major cardiovascular events [1] | interaction between risk of colorectal cancer and supplementation (colorectal cancer) | apoptosis in normal colonic mucosa (molecular markers) (normal colonic mucosa)
C=C1/C(=C\C=C2/CCC[C@]3(C)[C@@H]([C@H](C)CCCC(C)(C)O)CC[C@@H]23)C[C@@H](O)C[C@@H]1O [1α,25-dihydroxyvitamin D3] | induces HL-60 differentiation into macrophage-monocyte like cells | – | – | – | – | – | –
C=C1CC[C@H](O)C/C1=C/C=C1\CCC[C@]2(C)[C@@H]([C@H](C)CCCC(C)C)CC[C@@H]12 [hormone D3, cholecalciferol] | – | all of them were resolved completely | may no prevent cancer | 6.5% | not reduce the incidence of cancer or major cardiovascular events | no significant interaction | may enhance apoptosis in normal colonic mucosa
